Key:
Test in all cases: cells
Format in all cases: functional, cell-based, Homo sapiens
COLO-829 = details: Homo sapiens, COLO-829
Description: SANGER: Inhibition of human COLO-829 cell growth in a cell viability assay.

CP66-MEL = details: Homo sapiens, CP66-MEL;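 note: growth inhibition of CP66-MEL cells determined in a cell viability assay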
Description: SANGER: Inhibition of human CP66-MEL cell growth in a cell viability assay.

CTV-1 = details: Homo sapiens, CTV-1;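 note: growth inhibition of the cell line, read out with a cell viability assay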
Description: SANGER: Inhibition of human CTV-1 cell growth in a cell viability assay.

D283 Med = details: Homo sapiens, D283 Med
Description: SANGER: Inhibition of human D-283MED cell growth in a cell viability assay.

DJM-1 = details: Homo sapiens, DJM-1;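 note: growth inhibition of human DJM-1 cells, read out by a cell viability assay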
Description: SANGER: Inhibition of human DJM-1 cell growth in a cell viability assay.

EKVX = details: Homo sapiens, EKVX;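 note: growth inhibition of human EKVX cells, read out with a cell viability assay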
Description: SANGER: Inhibition of human EKVX cell growth in a cell viability assay.

EW-1 = details: Homo sapiens, EW-1
Description: SANGER: Inhibition of human EW-1 cell growth in a cell viability assay.

EW-18 = details: Homo sapiens, EW-18;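 note: growth inhibition of EW-18 cells, read out by a cell viability assay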
Description: SANGER: Inhibition of human EW-18 cell growth in a cell viability assay.

GB-1 = details: Homo sapiens, GB-1;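 note: growth of GB-1 cells judged by a viability assay, IC50 marks the concentration inhibiting growth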
Description: SANGER: Inhibition of human GB-1 cell growth in a cell viability assay.

GCIY = details: Homo sapiens, GCIY;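 note: growth inhibition of the human GCIY cell line, read out by a cell viability assay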
Description: SANGER: Inhibition of human GCIY cell growth in a cell viability assay.

GI-1 = details: Homo sapiens, GI-1;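 note: growth inhibition of human GI-1 cells, measured with a cell viability readout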
Description: SANGER: Inhibition of human GI-1 cell growth in a cell viability assay.

GR-ST = details: Homo sapiens, GR-ST
Description: SANGER: Inhibition of human GR-ST cell growth in a cell viability assay.

HCE-T = details: Homo sapiens, HCE-T;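 note: cell viability assay read-out, reporting inhibition of HCE-T cell growth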
Description: SANGER: Inhibition of human HCE-T cell growth in a cell viability assay.

HT-144 = details: Homo sapiens, HT-144
Description: SANGER: Inhibition of human HT-144 cell growth in a cell viability assay.

JVM-2 = details: Homo sapiens, JVM-2;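 note: growth inhibition of JVM-2 cells determined by a cell viability assay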
Description: SANGER: Inhibition of human JVM-2 cell growth in a cell viability assay.

JVM-3 = details: Homo sapiens, JVM-3;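 note: growth inhibition of human JVM-3 cells, read out with a cell viability assay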
Description: SANGER: Inhibition of human JVM-3 cell growth in a cell viability assay.

KALS-1 = details: Homo sapiens, KALS-1;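 note: growth inhibition of KALS-1 cells, determined with a cell viability assay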
Description: SANGER: Inhibition of human KALS-1 cell growth in a cell viability assay.

KARPAS-299 = details: Homo sapiens, KARPAS-299
Description: SANGER: Inhibition of human KARPAS-299 cell growth in a cell viability assay.

KGN = details: Homo sapiens, KGN;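 note: growth inhibition of KGN cells, read out with a cell viability assay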
Description: SANGER: Inhibition of human KGN cell growth in a cell viability assay.

KNS-42 = details: Homo sapiens, KNS-42;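 note: growth inhibition of KNS-42 cells, read out with a cell viability assay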
Description: SANGER: Inhibition of human KNS-42 cell growth in a cell viability assay.

KP-N-YS = details: Homo sapiens, KP-N-YS;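 note: cell viability assay measuring inhibition of cell line growth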
Description: SANGER: Inhibition of human KP-N-YS cell growth in a cell viability assay.

LB2241-RCC = details: Homo sapiens, LB2241-RCC;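 note: cell viability assay measuring how strongly the cultured human renal carcinoma line is prevented from growing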
Description: SANGER: Inhibition of human LB2241-RCC cell growth in a cell viability assay.

LS-1034 = details: Homo sapiens, LS-1034
Description: SANGER: Inhibition of human LS-1034 cell growth in a cell viability assay.

LS-513 = details: Homo sapiens, LS-513
Description: SANGER: Inhibition of human LS-513 cell growth in a cell viability assay.

MHH-NB-11 = details: Homo sapiens, MHH-NB-11;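 note: growth inhibition of human MHH-NB-11 cells, read out by a cell viability assay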
Description: SANGER: Inhibition of human MHH-NB-11 cell growth in a cell viability assay.

MHH-PREB-1 = details: Homo sapiens, MHH-PREB-1;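 note: cell viability assay measuring inhibition of proliferation of human MHH-PREB-1 cells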
Description: SANGER: Inhibition of human MHH-PREB-1 cell growth in a cell viability assay.

MMAC-SF = details: Homo sapiens, MMAC-SF;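 note: growth inhibition of human MMAC-SF cells, read out with a cell viability assay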
Description: SANGER: Inhibition of human MMAC-SF cell growth in a cell viability assay.

MOLT-4 = details: Homo sapiens, MOLT-4;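 note: growth inhibition of MOLT-4 cells, determined with a cell viability readout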
Description: SANGER: Inhibition of human MOLT-4 cell growth in a cell viability assay.

MSTO-211H = details: Homo sapiens, MSTO-211H
Description: SANGER: Inhibition of human MSTO-211H cell growth in a cell viability assay.

Mo = details: Homo sapiens, Mo
Description: SANGER: Inhibition of human Mo-T cell growth in a cell viability assay.

NB5 = details: Homo sapiens, NB5;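 note: growth inhibition of NB5 cells, read out as cell viability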
Description: SANGER: Inhibition of human NB5 cell growth in a cell viability assay.

NB69 = details: Homo sapiens, NB69;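 note: growth inhibition of NB69 cells, determined by a cell viability assay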
Description: SANGER: Inhibition of human NB69 cell growth in a cell viability assay.

NCI-H1304 = details: Homo sapiens, NCI-H1304;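 note: growth inhibition of the cancer cell line, measured in a cell viability assay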
Description: SANGER: Inhibition of human NCI-H1304 cell growth in a cell viability assay.

NCI-H23 = details: Homo sapiens, NCI-H23;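 note: cell viability assay measuring growth inhibition of NCI-H23 cells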
Description: SANGER: Inhibition of human NCI-H23 cell growth in a cell viability assay.

NCI-H510A = details: Homo sapiens, NCI-H510A;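 note: growth inhibition of NCI-H510A cells, read out with a cell viability assay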
Description: SANGER: Inhibition of human NCI-H510A cell growth in a cell viability assay.

NCI-H747 = details: Homo sapiens, NCI-H747;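 note: growth inhibition of human NCI-H747 cells, read out by a cell viability assay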
Description: SANGER: Inhibition of human NCI-H747 cell growth in a cell viability assay.

NTERA-2-cl-D1 = details: Homo sapiens, NTERA-2-cl-D1;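 note: inhibition of cell growth, measured with a cell viability assay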
Description: SANGER: Inhibition of human NTERA-S-cl-D1 cell growth in a cell viability assay.

OCI-AML2 = details: Homo sapiens, OCI-AML2;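 note: growth inhibition of OCI-AML2 cells, read out with a cell viability assay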
Description: SANGER: Inhibition of human OCI-AML2 cell growth in a cell viability assay.

OS-RC-2 = details: Homo sapiens, OS-RC-2;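 note: growth inhibition of human OS-RC-2 cells, measured by a cell viability assay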
Description: SANGER: Inhibition of human OS-RC-2 cell growth in a cell viability assay.

P30-OHK = details: Homo sapiens, P30-OHK;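 note: growth inhibition of the P30-OHK cell line, read out with a cell viability assay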
Description: SANGER: Inhibition of human P30-OHK cell growth in a cell viability assay.

Ramos-2G6-4C10 = details: Homo sapiens, Ramos-2G6-4C10;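 note: growth inhibition of the cell line, measured by a cell viability read-out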
Description: SANGER: Inhibition of human Ramos-2G6-4C10 cell growth in a cell viability assay.

SCC-15 = details: Homo sapiens, SCC-15;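 note: growth inhibition of SCC-15 cells, read out with a cell viability assay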
Description: SANGER: Inhibition of human SCC-15 cell growth in a cell viability assay.

SK-MEL-1 = details: Homo sapiens, SK-MEL-1;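 note: growth inhibition of human SK-MEL-1 cells, read out by a cell viability assay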
Description: SANGER: Inhibition of human SK-MEL-1 cell growth in a cell viability assay.

A388 = details: Homo sapiens, A388;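 note: growth inhibition of human A388 cells, read out with a cell viability assay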
Description: SANGER: Inhibition of human A388 cell growth in a cell viability assay.

A4-Fuk = details: Homo sapiens, A4-Fuk;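 note: growth inhibition of A4-Fuk cells, read out by a cell viability assay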
Description: SANGER: Inhibition of human A4-Fuk cell growth in a cell viability assay.

TE-11 = details: Homo sapiens, TE-11;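 note: growth inhibition of human TE-11 cells, read out by a cell viability assay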
Description: SANGER: Inhibition of human TE-11 cell growth in a cell viability assay.

VA-ES-BJ = details: Homo sapiens, VA-ES-BJ;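 note: growth inhibition of the VA-ES-BJ cell line, read out by a cell viability assay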
Description: SANGER: Inhibition of human VA-ES-BJ cell growth in a cell viability assay.

no-10 = details: Homo sapiens;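 note: growth inhibition of no-10 cells, read out with a cell viability assay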
Description: SANGER: Inhibition of human no-10 cell growth in a cell viability assay.

COLO-320-HSR = details: Homo sapiens, COLO-320-HSR;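 note: growth inhibition of COLO-320-HSR cells, determined with a cell viability assay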
Description: SANGER: Inhibition of human COLO-320-HSR cell growth in a cell viability assay.

In the case of `Oc1ccc2ccccc2c1SSc1c(O)ccc2ccccc12`, the IC50 (COLO-829) is reported as over 32 µM, the IC50 (CP66-MEL) is reported as over 32 µM and the IC50 (CTV-1) is reported as 9.36 µM. The IC50 (D283 Med) was over 32 µM, the IC50 (DJM-1) was over 32 µM and the IC50 (EKVX) was over 32 µM. The IC50 (EW-1) was 14.2 µM, the IC50 (EW-18) was over 32 µM and the IC50 (GB-1) was 2.63 µM. It also gave an IC50 (GCIY) of over 32 µM, an IC50 (GI-1) of over 32 µM and an IC50 (GR-ST) of 11 µM. It also gave an IC50 (HCE-T) of over 32 µM, an IC50 (HT-144) of over 32 µM and an IC50 (JVM-2) of over 32 µM. For the same compound, the IC50 (JVM-3) was over 32 µM, the IC50 (KALS-1) was over 32 µM and the IC50 (KARPAS-299) was over 32 µM. The IC50 (KGN) was 12.4 µM, the IC50 (KNS-42) was over 32 µM and the IC50 (KP-N-YS) was over 32 µM. For the same compound, the IC50 (LB2241-RCC) was 28 µM, the IC50 (LS-1034) was over 32 µM and the IC50 (LS-513) was over 32 µM. It also gave an IC50 (MHH-NB-11) of over 32 µM, an IC50 (MHH-PREB-1) of 3.47 µM and an IC50 (MMAC-SF) of over 32 µM. The IC50 (MOLT-4) was 14 µM, the IC50 (MSTO-211H) was over 32 µM and the IC50 (Mo) was over 32 µM. It also gave an IC50 (NB5) of over 32 µM, an IC50 (NB69) of 6.76 µM and an IC50 (NCI-H1304) of over 32 µM. It also gave an IC50 (NCI-H23) of over 32 µM, an IC50 (NCI-H510A) of over 32 µM and an IC50 (NCI-H747) of over 32 µM. The IC50 (NTERA-2-cl-D1) was over 32 µM, the IC50 (OCI-AML2) was 8.06 µM and the IC50 (OS-RC-2) was over 32 µM. The IC50 (P30-OHK) was 9.87 µM, the IC50 (Ramos-2G6-4C10) was over 32 µM and the IC50 (SCC-15) was over 32 µM. The IC50 (SK-MEL-1) was over 32 µM, the IC50 (A388) was over 32 µM and the IC50 (A4-Fuk) was 9.44 µM. For the same compound, the IC50 (TE-11) was over 32 µM, the IC50 (VA-ES-BJ) was over 32 µM and the IC50 (no-10) was over 32 µM. For the same compound, the IC50 (COLO-320-HSR) was over 32 µM.
For `O=C(O)c1ccc(-c2c[nH]c3ncc(-c4ccccc4)cc23)cc1C1CCCC1` [GSK-650394], the IC50 (COLO-829) was over 16 µM, the IC50 (CP66-MEL) was over 16 µM and the IC50 (CTV-1) was over 16 µM. For the same compound, the IC50 (D283 Med) was over 16 µM, the IC50 (DJM-1) was over 16 µM and the IC50 (EKVX) was over 16 µM. The IC50 (EW-1) was over 16 µM, the IC50 (EW-18) was over 16 µM and the IC50 (GB-1) was 5.96 µM. The IC50 (GCIY) was over 16 µM, the IC50 (GI-1) was over 16 µM and the IC50 (GR-ST) was over 16 µM. The IC50 (HCE-T) was over 16 µM, the IC50 (HT-144) was over 16 µM and the IC50 (JVM-2) was over 16 µM. It also gave an IC50 (JVM-3) of over 16 µM, an IC50 (KALS-1) of over 16 µM and an IC50 (KARPAS-299) of over 16 µM. For the same compound, the IC50 (KGN) was over 16 µM, the IC50 (KNS-42) was over 16 µM and the IC50 (KP-N-YS) was 4.39 µM. For the same compound, the IC50 (LB2241-RCC) was over 16 µM, the IC50 (LS-1034) was over 16 µM and the IC50 (LS-513) was over 16 µM. For the same compound, the IC50 (MHH-NB-11) was over 16 µM, the IC50 (MHH-PREB-1) was over 16 µM and the IC50 (MMAC-SF) was over 16 µM. The IC50 (MOLT-4) was over 16 µM, the IC50 (MSTO-211H) was over 16 µM and the IC50 (Mo) was over 16 µM. It also gave an IC50 (NB5) of over 16 µM, an IC50 (NB69) of over 16 µM and an IC50 (NCI-H1304) of over 16 µM. For the same compound, the IC50 (NCI-H23) was over 16 µM, the IC50 (NCI-H510A) was over 16 µM and the IC50 (NCI-H747) was over 16 µM. The IC50 (NTERA-2-cl-D1) was 3.55 µM, the IC50 (OCI-AML2) was over 16 µM and the IC50 (OS-RC-2) was over 16 µM. The IC50 (P30-OHK) was 6.21 µM, the IC50 (Ramos-2G6-4C10) was over 16 µM and the IC50 (SCC-15) was over 16 µM. For the same compound, the IC50 (SK-MEL-1) was over 16 µM, the IC50 (A388) was 7.6 µM and the IC50 (A4-Fuk) was 14.9 µM. The IC50 (TE-11) was over 16 µM, the IC50 (VA-ES-BJ) was 9.04 µM and the IC50 (no-10) was over 16 µM. The IC50 (COLO-320-HSR) was over 16 µM.

Reference: ChEMBL document CHEMBL1201861, “Genomics of Drug Sensitity in Cancer screening data, Wellcome Trust Sanger Institute”
